Results taken from PubChem BioAssay AID2060617 (Molecular Pharmacology Branch, DTP, NCI, 2025).
pIC50: −log10 of the molar value.

Test system: 485368-065-R4-J2-PDC spheroids with HUVEC/MSC, viability
Assay: Anticancer human tumor 485368-065-R4-J2-PDC patient-derived pancreatic carcinoma cell line growth inhibition [CLK]
Details: for pIC50: curve of first compound; for viability, T/C: stronger effect = lower value; active means viability on the fitted dose curve at most 10% of control; inactive means the rest
Method in brief: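 Multi-cell-type spheroids combined patient-derived tumor cells with HUVEC endothelial cells and human mesenchymal stem cells. Paired agents were dosed in half-log steps down from about clinical Cmax, or from 10 microM where Cmax was unknown.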

[1] = second compound 0.0316 µM, first compound 0.0316 µM
[2] = second compound 0.0316 µM, first compound 0.1 µM
[3] = second compound 0.0316 µM, first compound 0.316 µM
[4] = second compound 0.0316 µM, first compound 1 µM
[5] = second compound 0.1 µM, first compound 0.0316 µM
[6] = second compound 0.1 µM, first compound 0.1 µM
[7] = second compound 0.1 µM, first compound 0.316 µM
[8] = second compound 0.1 µM, first compound 1 µM
[9] = second compound 0.316 µM, first compound 0.0316 µM
[10] = second compound 0.316 µM, first compound 0.1 µM
[11] = second compound 0.316 µM, first compound 0.316 µM
[12] = second compound 0.316 µM, first compound 1 µM
[13] = second compound 1 µM, first compound 0.0316 µM
[14] = second compound 1 µM, first compound 0.1 µM
[15] = second compound 1 µM, first compound 0.316 µM
[16] = second compound 1 µM, first compound 1 µM
[17] = second compound 3.16 µM, first compound 0.0316 µM
[18] = second compound 3.16 µM, first compound 0.1 µM
[19] = second compound 3.16 µM, first compound 0.316 µM
[20] = second compound 3.16 µM, first compound 1 µM
[21] = second compound 10 µM, first compound 0.0316 µM
[22] = second compound 10 µM, first compound 0.1 µM
[23] = second compound 10 µM, first compound 0.316 µM
[24] = second compound 10 µM, first compound 1 µM
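Further: spheroids exposed to compounds for seven days.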
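Wherever viability, T/C is given: 100% = DMSO vehicle control wells.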

CC(=O)O[C@H]1C(=O)[C@@]2(C)[C@H]([C@H](OC(=O)c3ccccc3)[C@]3(O)C[C@H](OC(=O)[C@H](O)[C@@H](NC(=O)c4ccccc4)c4ccccc4)C(C)=C1C3(C)C)[C@]1(OC(C)=O)CO[C@@H]1C[C@@H]2O + CNC(=O)c1ccc(Nc2nc(OC3CCCC3)c3c(-c4ccc5nc(C)oc5c4)c[nH]c3n2)c(OC)c1
< 5.00: pIC50 (second compound 0.0316 µM) | pIC50 (second compound 0.1 µM) | pIC50 (second compound 0.316 µM) | pIC50 (second compound 1 µM) | pIC50 (second compound 3.16 µM) | pIC50 (second compound 10 µM)
inactive: viability, T/C [1] 63.4% | viability, T/C [2] 49.2% | viability, T/C [3] 55.9% | viability, T/C [4] 62.6% | viability, T/C (second compound 0.0316 µM, first compound 3.16 µM) 56.5% | viability, T/C (second compound 0.0316 µM, first compound 10 µM) 55.8% | viability, T/C [5] 59.1% | viability, T/C [6] 66.3% | viability, T/C [7] 60.4% | viability, T/C [8] 56.7% | viability, T/C (second compound 0.1 µM, first compound 3.16 µM) 55.2% | viability, T/C (second compound 0.1 µM, first compound 10 µM) 76.5% | viability, T/C [9] 76.3% | viability, T/C [10] 79.7% | viability, T/C [11] 85.2% | viability, T/C [12] 85.6% | viability, T/C (second compound 0.316 µM, first compound 3.16 µM) 86.6% | viability, T/C (second compound 0.316 µM, first compound 10 µM) 102% | viability, T/C [13] 73.8% | viability, T/C [14] 82.2% | viability, T/C [15] 81.6% | viability, T/C [16] 83.5% | viability, T/C (second compound 1 µM, first compound 3.16 µM) 90.5% | viability, T/C (second compound 1 µM, first compound 10 µM) 91.9% | viability, T/C [17] 74.4% | viability, T/C [18] 80.1% | viability, T/C [19] 86.4% | viability, T/C [20] 78.6% | viability, T/C (second compound 3.16 µM, first compound 3.16 µM) 88% | viability, T/C (second compound 3.16 µM, first compound 10 µM) 88.9% | viability, T/C [21] 67.5% | viability, T/C [22] 78.8% | viability, T/C [23] 73.9% | viability, T/C [24] 77.5% | viability, T/C (second compound 10 µM, first compound 3.16 µM) 82.4% | viability, T/C (second compound 10 µM, first compound 10 µM) 95.4%

CCc1c2c(nc3ccc(O)cc13)-c1cc3c(c(=O)n1C2)COC(=O)[C@]3(O)CC + CNC(=O)c1ccc(Nc2nc(OC3CCCC3)c3c(-c4ccc5nc(C)oc5c4)c[nH]c3n2)c(OC)c1
> 8.50: pIC50 (second compound 0.1 µM) | pIC50 (second compound 0.316 µM) | pIC50 (second compound 1 µM) | pIC50 (second compound 3.16 µM) | pIC50 (second compound 10 µM)
inactive: viability, T/C (second compound 0.0316 µM, first compound 0.00316 µM) 53.6% | viability, T/C (second compound 0.0316 µM, first compound 0.01 µM) 27% | viability, T/C [1] 13.1% | viability, T/C [2] 7.46% | viability, T/C [3] 10.5% | viability, T/C [4] 16% | viability, T/C (second compound 0.1 µM, first compound 0.00316 µM) 46.3% | viability, T/C (second compound 0.1 µM, first compound 0.01 µM) 27% | viability, T/C [5] 12.6% | viability, T/C [6] 7.47% | viability, T/C [7] 8.97% | viability, T/C [8] 17% | viability, T/C (second compound 0.316 µM, first compound 0.00316 µM) 41.9% | viability, T/C (second compound 0.316 µM, first compound 0.01 µM) 20.4% | viability, T/C [9] 11.7% | viability, T/C [10] 7.63% | viability, T/C [11] 9% | viability, T/C [12] 16.2% | viability, T/C (second compound 1 µM, first compound 0.00316 µM) 25.8% | viability, T/C (second compound 1 µM, first compound 0.01 µM) 13.5% | viability, T/C [13] 8.98% | viability, T/C [14] 6.66% | viability, T/C [15] 10.7% | viability, T/C [16] 18.1% | viability, T/C (second compound 3.16 µM, first compound 0.00316 µM) 20.9% | viability, T/C (second compound 3.16 µM, first compound 0.01 µM) 11.3% | viability, T/C [17] 9.77% | viability, T/C [18] 7.07% | viability, T/C [19] 11.5% | viability, T/C [20] 18.9% | viability, T/C (second compound 10 µM, first compound 0.00316 µM) 19.4% | viability, T/C (second compound 10 µM, first compound 0.01 µM) 13.9% | viability, T/C [21] 7.33% | viability, T/C [22] 7.37% | viability, T/C [23] 15.9% | viability, T/C [24] 20.8%
8.43: pIC50 (second compound 0.0316 µM)
